Data as given in PubChem BioAssay (NCI).
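In this assay, cells in 96-well plates receive the compound at five concentrations for 48 hours. Endpoints are linearly interpolated between the surrounding concentrations. TGI denotes the concentration required for complete inhibition of growth.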

Columns and labels:
Test in all cases: NCI anticancer screen, dose series, 48 h
786-0 renal = system: 786-0 renal
A498 renal = system: A498 renal
A549 NSCLC = system: A549 NSCLC
ACHN renal = system: ACHN renal
BT-549 breast = system: BT-549 breast
CAKI-1 renal = system: CAKI-1 renal
CCRF-CEM leukemia = system: CCRF-CEM leukemia
COLO 205 colon = system: COLO 205 colon
DU-145 prostate = system: DU-145 prostate
EKVX NSCLC = system: EKVX NSCLC
HCC-2998 colon = system: HCC-2998 colon
HCT-116 colon = system: HCT-116 colon
HCT-15 colon = system: HCT-15 colon
HL-60(TB) leukemia = system: HL-60(TB) leukemia
HOP-62 NSCLC = system: HOP-62 NSCLC
HOP-92 NSCLC = system: HOP-92 NSCLC
HS 578T breast = system: HS 578T breast
HT29 colon = system: HT29 colon
IGROV1 ovarian = system: IGROV1 ovarian
K-562 leukemia = system: K-562 leukemia
KM12 colon = system: KM12 colon
LOX IMVI melanoma = system: LOX IMVI melanoma
M14 melanoma = system: M14 melanoma
MALME-3M melanoma = system: MALME-3M melanoma
MCF7 breast = system: MCF7 breast
MDA-MB-231 breast = system: MDA-MB-231 breast
MDA-MB-435 = system: MDA-MB-435
MDA-N = system: MDA-N
MOLT-4 leukemia = system: MOLT-4 leukemia
NCI-H226 lung = system: NCI-H226 lung
NCI-H23 lung = system: NCI-H23 lung
NCI-H460 lung = system: NCI-H460 lung
NCI-H522 lung = system: NCI-H522 lung
NCI/ADR-RES ovarian = system: NCI/ADR-RES ovarian
OVCAR-3 ovarian = system: OVCAR-3 ovarian
OVCAR-4 ovarian = system: OVCAR-4 ovarian
OVCAR-5 ovarian = system: OVCAR-5 ovarian
OVCAR-8 ovarian = system: OVCAR-8 ovarian
PC-3 prostate = system: PC-3 prostate
RXF 393 renal = system: RXF 393 renal
SF-268 CNS = system: SF-268 CNS
SF-295 CNS = system: SF-295 CNS
SK-MEL-28 melanoma = system: SK-MEL-28 melanoma
SK-MEL-5 melanoma = system: SK-MEL-5 melanoma
SK-OV-3 ovarian = system: SK-OV-3 ovarian
SN12C renal = system: SN12C renal
SNB-19 CNS = system: SNB-19 CNS
SR leukemia = system: SR leukemia
SW-620 colon = system: SW-620 colon
T-47D breast = system: T-47D breast
TK-10 renal = system: TK-10 renal
U251 CNS = system: U251 CNS
UACC-257 melanoma = system: UACC-257 melanoma
UACC-62 melanoma = system: UACC-62 melanoma
UO-31 renal = system: UO-31 renal
SF-539 CNS = system: SF-539 CNS
SK-MEL-2 melanoma = system: SK-MEL-2 melanoma
SNB-75 CNS = system: SNB-75 CNS
RPMI-8226 leukemia = system: RPMI-8226 leukemia

Measured: TGI

CC[C@@H](C)[C@H](NC(=O)[C@H](Cc1ccccc1)NCC(F)(F)F)C(=O)OC(C)(C)C
not listed: SF-539 CNS | SK-MEL-2 melanoma | SNB-75 CNS | RPMI-8226 leukemia
> 100 µM: all other assays above

COc1ccc(Cn2c3c(cc(OC(C)=O)c2=O)Cc2ccccc2-3)cc1
17.9 µM: M14 melanoma
41.6 µM: SK-MEL-5 melanoma
9.87 µM: UACC-257 melanoma
34 µM: K-562 leukemia | TK-10 renal
28.4 µM: SF-539 CNS
28 µM: SR leukemia
20.3 µM: IGROV1 ovarian | OVCAR-8 ovarian
20.8 µM: SN12C renal
22.4 µM: SW-620 colon
32 µM: ACHN renal
39 µM: HCT-15 colon
22.3 µM: UACC-62 melanoma
28.3 µM: EKVX NSCLC
20.6 µM: HL-60(TB) leukemia
33.8 µM: SF-268 CNS
42.6 µM: RXF 393 renal
35.1 µM: BT-549 breast
8.53 µM: NCI/ADR-RES ovarian
28.5 µM: NCI-H23 lung
43.6 µM: SNB-75 CNS
23.9 µM: SK-MEL-2 melanoma
34.1 µM: HOP-92 NSCLC
19.7 µM: LOX IMVI melanoma
9.96 µM: HCC-2998 colon
30.2 µM: PC-3 prostate
26.3 µM: U251 CNS
28.8 µM: MOLT-4 leukemia
13.2 µM: HCT-116 colon
15.1 µM: NCI-H522 lung
35.7 µM: CAKI-1 renal
41.1 µM: NCI-H226 lung
25.2 µM: HT29 colon
15.9 µM: UO-31 renal
15 µM: NCI-H460 lung
12.8 µM: 786-0 renal
35.9 µM: KM12 colon
32.2 µM: MALME-3M melanoma
not listed: A498 renal | RPMI-8226 leukemia
> 50 µM: all other assays above

O=C(O)CCCc1ccc2ccc3ccccc3c2c1
87.4 µM: SNB-75 CNS
not listed: CCRF-CEM leukemia | HCC-2998 colon | HL-60(TB) leukemia | SK-OV-3 ovarian | SW-620 colon | SF-539 CNS
> 100 µM: all other assays above

CSc1c(C(=O)Nc2ccccc2)c(N)n(N)c(=O)c1C#N
not listed: ACHN renal | HOP-62 NSCLC | HOP-92 NSCLC | SF-295 CNS
> 100 µM: all other assays above
